Assay [1] deals with PC-3 prostatic cancer cells. Kind of assay: Cell growth inhibition and cell death induction (Incucyte), PC-3. Particulars: 48 hours, FIG. 12C,D. Format: cell-based, human. The source says:
FIG. 12: The cell growth inhibition and cell death induction of non-small cell lung cancers (NSCLC), HCC827 cells and derivative Gefitinib-resistant clone H1975 (FIG. 12 A,B) and of PC-3 (FIG. 12 C,D) and LnCAP (FIG. 12 E,F) were monitored using Incucyte microscope. Histogram represent in A,C,E: the final cell area relative to the total well area in (%) and in B,D,F: the fluorescent area in μm2. Error bars indicate standard deviation between 6 technical replicates.
The cell growth inhibition and cell death induction of non-small cell lung cancers (NSCLC), HCC827 cells and derivative Gefitinib-resistant clone H1975 were monitored during a period of 72 hours using Incucyte microscope and dedicated programs allowing to monitor cell confluency (i.e.: cell surface area relative to total well surface) and cell death induction by adding Propidium Iodide (PI) at 1 μg/ml (Sigma Aldrich #P4864) in the culture medium.

Assay [2] addresses T1, USP8^CD (purified catalytic domain of USP8) (Homo sapiens, UniProt P40818).
T1 construct: the purified catalytic domain of USP8 (USP8^CD, in-house purified); made in house; host or cells: E. coli BL21 Gold
T1 sequence (P40818 777-1109 limits assumed): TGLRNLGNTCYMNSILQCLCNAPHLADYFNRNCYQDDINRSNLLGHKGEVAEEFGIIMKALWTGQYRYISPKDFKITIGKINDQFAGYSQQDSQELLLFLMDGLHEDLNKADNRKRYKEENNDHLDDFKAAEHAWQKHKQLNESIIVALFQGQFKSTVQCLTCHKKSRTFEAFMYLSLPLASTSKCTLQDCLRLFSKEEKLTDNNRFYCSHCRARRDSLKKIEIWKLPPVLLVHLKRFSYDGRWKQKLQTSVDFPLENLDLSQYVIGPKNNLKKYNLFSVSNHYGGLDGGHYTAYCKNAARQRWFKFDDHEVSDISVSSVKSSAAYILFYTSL
Kind of assay: Inhibition of purified USP8^CD enzymatic activity (Ub-AMC or Ub-Rho substrate). Particulars: for inhibition of USP8^CD catalytic activity (IC50 range, FIG. 1): Ub-Rho substrate (0.1 μM); for inhibition at 0.1 µM: 0.1 μM compound; for inhibition at 0.5 µM: 0.5 μM compound; for inhibition at 1 µM: 1 μM compound; for inhibition at 0.01 µM: 0.01 μM compound; for inhibition at 0.05 µM: 0.05 μM compound; for inhibition at 5 µM: 5 μM compound; for inhibition at 10 µM: 10 μM compound; for inhibition at 25 µM: 25 μM compound; for inhibition at 50 µM: 50 μM compound. Format: biochemical. The essentials: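 His-tagged catalytic domain expressed in E. coli and purified by Ni affinity and gel filtration. Assayed in 50 mM HEPES pH 7.6 or 40 mM Tris pH 7.4 buffer with 1 mM DTT; compound added just before Ub-AMC or Ub-Rho substrate, fluorescence kinetics followed 20 or 30 min. Median of duplicates.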

The next assay has as its system LNCaP cells. Kind of assay: Cytotoxicity assay (PrestoBlue cell viability), LNCaP. Format: cell-based. Particulars: Homo sapiens, 48 hours treatment. How it is done:
(§1) Messa, Messa DX5, HCT116, HEK-293, PC-3, LNCaP, HCC827 and H1975 cell lines are issued from the American Type Culture Collection (ATCC).
(§2) Messa, Messa DX5 and HCT116 were maintained in McCoy's supplemented with 10% fetal bovine serum, and 1% penicillin/streptomycin. PC-3, LNCaP cells were maintained in RPMI medium supplemented with 10% fetal bovine serum, and 1% penicilin/streptomycin and in the case of Messa DX5: 500 nM Doxorubicin was added to maintain selection pressure. HEK293 were maintained in DMEM medium supplemented with 10% fetal bovine serum, and 1% penicillin/streptomycin. Cells were maintained at 37° C. with 5% CO2, 95% air, and humid atmosphere. In the case of hormonal dependent LNCaP cells, 2 μM DiHydroTestosterone (DHT) was added or not—depending on the type of biological assay—for the same incubation period as compounds.
(§3) For cytotoxicity assays, cells were seeded in 96-well microplates 24 hours before the addition of increasing concentrations of each compound in the culture medium. Cell viability was analyzed 48 hours following addition of each compound through the monitoring of mitochondrial […] activity using PrestoBlue® Cell Viability Reagent (Invitrogen; #A-13261). Paclitaxel was used as a control which is cytotoxic on various cancerous cells although not on chemoresistant MESSA DX5 lineage.

A further assay has as its system MESSA cells. Kind of assay: Cytotoxicity assay (PrestoBlue cell viability), MESSA. Format: cell-based. Particulars: Homo sapiens, MES-SA; 48 hours treatment; concentration inducing 50% cell mortality. The procedure: as §1, §2, §3
In another assay the test system is PC-3 cells. Kind of assay: Cytotoxicity assay (PrestoBlue cell viability), PC-3. Format: cell-based. Particulars: Homo sapiens, 48 hours treatment. How it is done: as §1, §2, §3
The next assay relates to MESSA DX5 cells. Kind of assay: Cytotoxicity assay (PrestoBlue cell viability), MESSA DX5. It counts as cell-based, human. Particulars: for EC50: Homo sapiens, MES-SA/Dx5, 48 hours treatment, chemoresistant line. The procedure: as §1, §2, §3
For the next assay, the system named is H1975 cells. Kind of assay: Cytotoxicity assay (PrestoBlue cell viability), H1975. Format: cell-based, human. How it is done: as §1, §3
The mark [3] stands for this setting: Ub-AMC substrate at 1 μM, Table 2b, read-out: IC50 USP8 CD.
The mark [4] stands for this setting: Ub-Rhodamine substrate at 0.1 μM, Table 2c, read-out: IC50 USP8 CD.

Read-outs that look alike come from different tables or passages of the source. Bounds are passed on as bounds.

On to `CCCCS(=O)(=O)Cc1nc2c(nc1CS(=O)(=O)CCCC)C(=O)c1ccccc1C2=O` [PCR6236], for which the “cell growth inhibition and cell death induction, PC-3” value in assay [1] is “inhibit cell growth and induce cell death in a dose dependent manner”. Moreover, the half-maximal inhibitory concentration (IC50) – broadly, the concentration at which inhibition is half-maximal – in assay [2] is 0.06 µM. In assay [2], the “inhibition of USP8^CD catalytic activity (IC50 range, FIG. 1)” value is reported as “in the nanomolar range”. The EC50 (in general, the concentration giving half of the maximal effect) in the assay with LNCaP cells was 2 µM; in the assay on MESSA cells it was 2 µM; in the assay with PC-3 cells, 0.8 µM; in the assay on MESSA DX5 cells, 3.5 µM; with H1975 cells (48 hours treatment, Gefitinib resistant cells) it was 3 µM; with H1975 cells (Homo sapiens, NCI-H1975, 48 h, 48 hours treatment, Gefitinib resistant cells), at most 3 µM. The “sensitivity of chemo-resistant MESSA-DX5 compared with nonresistant MESSA cell line” value in the assay on MESSA DX5 cells was “equally sensitive”.

Consider `CCCCS(=O)(=O)Cc1nc2c(o1)C(=O)c1ccccc1C2=O` [PCR9301], for which the inhibition (in general, the change of the read-out against control, counted positive when it falls) at 0.1 µM in assay [2] (Table 3a) came to 53%. The inhibition at 0.5 µM in assay [2] (Table 3a) came out at 81%. Besides, the inhibition at 1 µM in assay [2] (Table 3a) was found to be 107%. Further, in assay [2], the “inhibition of USP8^CD catalytic activity (IC50 range, FIG. 1)” value was “in the nanomolar range”. Also, in assay [2] (Ub-Rho substrate, Table 3b, read-out: IC50 against purified USP8^CD), the IC50 was found to be 0.08 µM. Also, the half-maximal effective concentration (EC50) in the assay on LNCaP cells stood at 1.3 µM; in the assay on MESSA cells, 1.3 µM; with PC-3 cells it was 1 µM; in the assay on MESSA DX5 cells, 1.8 µM. Further, the “sensitivity of chemo-resistant MESSA-DX5 compared with nonresistant MESSA cell line” value in the assay with MESSA DX5 cells was “equally sensitive”.

As to `O=C1c2ccccc2C(=O)c2nc(CS(=O)(=O)c3ccccc3F)c(CS(=O)(=O)c3ccccc3F)nc21` [OVM24], the “cell growth inhibition and cell death induction, PC-3” value in assay [1] was “inhibit cell growth and induce cell death in a dose dependent manner”. In assay [2] (Table 1d), the inhibition at 0.01 µM was -25%, the inhibition at 0.05 µM was found to be 3%, the inhibition at 0.1 µM is 7% and the inhibition at 0.5 µM worked out at 65%. Moreover, in assay [2] (Table 1d), the inhibition at 1 µM was found to be 74%, the inhibition at 5 µM is 78% and the inhibition at 10 µM turned out to be 97%. In addition, in assay [2] (Table 1b), the inhibition at 1 µM was found to be 64%, the inhibition at 5 µM is 103%, the inhibition at 25 µM is 115% and the inhibition at 50 µM is 103%. For the same compound, the IC50 in assay [2] (setting [3]) was found to be 0.4 µM. The concentration for half-maximal inhibition (IC50) in assay [2] (setting [4]) was determined as 2.3 µM. In the assay on LNCaP cells, this compound returned an EC50 of 1.3 µM. This compound displayed an EC50 in the assay on MESSA cells of 0.7 µM. This compound also registered a concentration giving a half-maximal response (EC50) in the assay on PC-3 cells of 2.5 µM. For the same compound, in the assay with MESSA DX5 cells, the half-maximal effective concentration (EC50) is 0.8 µM. In the assay on H1975 cells (Homo sapiens, NCI-H1975, 48 h), the midpoint of the response, the EC50, lay at 2 µM.

With `CCCS(=O)(=O)Cc1nc2c(nc1CS(=O)(=O)CCC)C(=O)c1ccccc1C2=O` [VIN6074], the “cell growth inhibition and cell death induction, PC-3” value in assay [1] was “inhibit cell growth and induce cell death in a dose dependent manner”. Besides, in assay [2] (Table 1d), the inhibition at 0.01 µM was -17%, the inhibition at 0.05 µM was determined as 16%, the inhibition at 0.1 µM turned out to be 0% and the inhibition at 0.5 µM is 67%. In addition, in assay [2] (Table 1d), the inhibition at 1 µM came to 93%, the inhibition at 5 µM is 103% and the inhibition at 10 µM turned out to be 99%. Moreover, in assay [2] (Table 1b), the inhibition at 1 µM is 93%, the inhibition at 5 µM came out at 98%, the inhibition at 25 µM was 100% and the inhibition at 50 µM turned out to be 107%. Also, the 50% inhibitory concentration (IC50) in assay [2] (setting [3]) was 0.3 µM. Also, the IC50 in assay [2] (setting [4]) is 0.04 µM. In addition, the midpoint of the response in the assay with LNCaP cells, the EC50, lay at 1.9 µM. A half-maximal response in the assay on MESSA cells (EC50) required 2.7 µM. In the assay with PC-3 cells, this compound registered an EC50 of 2.3 µM. This compound also had an EC50 in the assay on MESSA DX5 cells of 3.5 µM. It took 2 µM to reach a half-maximal effect with H1975 cells (Homo sapiens, NCI-H1975, 48 h) (EC50).

The values are drawn from patent US11306063B2, “Heterocyclic naphthoquinones derivatives for use in the treatment of cancers including Cushing disease” (Commissariat a l'Energie Atomique et aux Energies …, priority 2016, dated 2022).
